One data set addresses T1, recombinant human mPGES-1 (Homo sapiens, UniProt O14684).
T1 construct: made in house; host or cells: Rosetta E. coli (microsomal/membrane fraction)
T1 sequence (O14684 1-152): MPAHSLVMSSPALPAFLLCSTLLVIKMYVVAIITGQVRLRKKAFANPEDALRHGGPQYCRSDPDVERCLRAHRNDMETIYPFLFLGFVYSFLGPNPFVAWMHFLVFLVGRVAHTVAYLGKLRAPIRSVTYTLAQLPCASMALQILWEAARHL
Briefly: mPGES-1 inhibition test (microsomes, PGH2 substrate, HTRF detection of PGE2). It is filed as biochemical. Particulars: inhibition of mPGES-1 at 1 μM (marked in cell). The essentials:
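Microsomes from E. coli Rosetta expressing the enzyme, in 0.1 M KPi pH 7.4 with 2.5 mM GSH, were preincubated 25 min at room temperature with inhibitor in DMSO. PGH2 was added, the reaction stopped after one minute with acidified FeCl2, and PGE2 quantified by HTRF after 750-fold dilution.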
Turning to `CC(C)Oc1cc2c(cc1C(=O)NC1CCC3(CC1)CC3)nc(Nc1c(Cl)ccc(Cl)c1F)n2C` [Example 648, 2-(3,6-Dichloro-2-fluoro-phenylamino)-6-isopropoxy-N-(spiro[2.5]oct-6-yl)-1-methyl-1H-benzimidazole-5-carboxamide], the inhibition – broadly, the change of the read-out against control, counted positive when it falls – at 1 µM turned out to be 100%.
Regarding `Cc1ccc(Cl)c(Nc2nc3cc(C(=O)NC4CCC(C)(C)CC4)c(F)cc3n2C)c1F` [Example 627, 2-(6-Chloro-2-fluoro-3-methyl-phenylamino)-6-fluoro-N-(4,4-dimethyl-cyclohex-1-yl)-1-methyl-1H-benzimidazole-5-carboxamide], the inhibition at 1 µM was found to be 94%.
As for `CC(C)Oc1cc2c(cc1C(=O)NC1CCC(C)(C)CC1)nc(Nc1c(Cl)ccc(Cl)c1F)n2C` [Example 625, 2-(3,6-Dichloro-2-fluoro-phenylamino)-6-isopropoxy-N-(4,4-dimethyl-cyclohex-1-yl)-1-methyl-1H-benzimidazole-5-carboxamide], the inhibition at 1 µM amounted to 99%.
For the compound `CCOc1cc2[nH]c(Nc3c(Cl)ccc(Cl)c3F)nc2cc1C(=O)NC1CCC2(CC1)CC2` [Example 646, 2-(3,6-Dichloro-2-fluoro-phenylamino)-6-ethoxy-N-(spiro[2.5]oct-6-yl)-1H-benzimidazole-5-carboxamide], the inhibition at 1 µM stood at 99%.
As to `COc1cc2c(cc1C(=O)Nc1ccc(Br)cc1)nc(Nc1cccc(Cl)c1C(F)(F)F)n2C` [Example 654], the inhibition at 1 µM turned out to be 99%.

Still in this data set, the particulars now being: inhibition of mPGES-1 at 10 μM.
As for `O=C(Nc1ccc(Br)cn1)c1ccc2[nH]c(Nc3c(Cl)cccc3Cl)nc2c1` [Example 303, 2-(2,6-Dichloro-phenylamino)-1H-benzimidazole-5-carboxylic acid (5-bromo-pyridin-2-yl)-amide], the inhibition at 10 µM was determined as 90%.
Turning to `Cn1c(Nc2c(Cl)cccc2Cl)nc2cc(C(=O)Nc3cccc(Cl)c3)ccc21` [Example 297, 2-(2,6-Dichloro-phenylamino)-1-methyl-1H-benzimidazole-5-carboxylic acid (3-chloro-phenyl)-amide], the inhibition at 10 µM was determined as 97%.
Regarding `Cn1c(Nc2c(Cl)cccc2Cl)nc2cc(C(=O)Nc3cc(C#N)ccn3)ccc21` [Example 524, N-(4-Cyanopyridin-2-yl)-2-(2,6-dichlorophenylamino)-1-methyl-1H-benzimidazole-5-carboxamide], the inhibition at 10 µM stood at 98%.
As to `O=C(O)CCn1c(Nc2c(Cl)cccc2Cl)nc2cc(C(=O)Nc3cc(Cl)ccn3)ccc21` [Example 265, 2-(2,6-Dichloro-phenylamino)-1-(propionic acid)-1H-benzimidazole-5-carboxylic acid (4-chloro-pyridin-2-yl)-amide], the inhibition at 10 µM was determined as 97%.
For the compound `COc1cc2[nH]c(Nc3c(Cl)cccc3Cl)nc2cc1C(=O)NCc1ncccc1OC` [Example 525, 2-(2,6-Dichlorophenylamino)-6-methoxy-N-((3-methoxypyridin-2-yl)methyl)-1H-benzimidazole-5-carboxamide], the inhibition at 10 µM was determined as 98%.
Take `COc1ccnc(CNC(=O)c2cc3nc(Nc4c(Cl)cccc4Cl)n(C)c3cc2F)c1` [Example 569, 2-(2,6-Dichlorophenylamino)-6-fluoro-N-((4-methoxypyridin-2-yl)methyl)-1-methyl-1H-benzimidazole-5-carboxamide]: the inhibition at 10 µM is 81%.
With `Cn1c(Nc2ccc(Cl)cc2C(F)(F)F)nc2cc(C(=O)Nc3ccc(Br)cc3)ccc21` [Example 433, N-(4-Bromophenyl)-2-(4-chloro-2-trifluoromethyl-phenylamino)-1-methyl-1H-benzimidazole-5-carboxamide], the inhibition at 10 µM came to 99%.
On to `Cn1c(Nc2c(Cl)cccc2Cl)nc2cc(C(=O)NC3CCC4(CC3)CC4)ccc21` [Example 483, 2-(2,6-Dichlorophenylamino)-1-methyl-N-(spiro[2.5]octan-6-yl)-1H-benzimidazole-5-carboxamide], for which the inhibition at 10 µM turned out to be 95%.
Still for that read-out and setting: under `Cc1cnc(NC(=O)c2cc3nc(Nc4c(Cl)cccc4Cl)n(C)c3cc2F)cc1Cl` [Example 372, N-(4-Chloro-5-methylpyridin-2yl)-2-(2,6-dichlorophenylamino)-6-fluoro-1-methyl-1H-benzimidazole-5-carboxamide] stands 98%; under `COc1cccc(NC(=O)c2ccc3nc(Nc4c(Cl)cccc4Cl)[nH]c3c2)n1` [Example 194, 2-(2,6-Dichloro-phenylamino)-3H-benzimidazole-5-carboxylic acid (6-methoxy-pyridin-2-yl)-amide], 98%; under `Cn1c(Nc2cc(S(C)(=O)=O)ccc2Cl)nc2cc(C(=O)Nc3ccc(Br)cc3)ccc21` [Example 526, N-(4-Bromophenyl)-2-(2-chloro-5-(methylsulfonyl)phenylamino)-1-methyl-1H-benzimidazole-5-carboxamide], 93%.
On to `Cc1cc(NC(=O)c2ccc3[nH]c(Nc4c(Cl)cccc4Cl)nc3c2)ncc1Cl` [Example 89, 2-(2,6-Dichloro-phenylamino)-1H-benzimidazol-5-carboxylic acid (5-chloro-4-methyl-pyridin-2-yl)-amide], for which the inhibition at 10 µM is 97%.
Consider `O=C(Nc1cc(Cl)ccn1)c1ccc2c(c1)nc(Nc1c(Cl)cccc1Cl)n2C1CNC1` [Example 207, 2-(2,6-Dichloro-phenylamino)-1-azetidin-3-yl-1H-benzimidazole-5-carboxylic acid (4-chloro-pyridin-2-yl)-amide(trifluoro-acetate)], for which the inhibition at 10 µM amounted to 97%.
Take `O=C(Nc1cccc(Cl)c1)c1cc(Br)c2[nH]c(Nc3c(Cl)cccc3Cl)nc2c1` [compound 351]: the inhibition at 10 µM stood at 100%.
Still for that read-out and setting: under `CN(C)C(=O)c1ccc(Nc2nc3cc(C(=O)Nc4ccc(Br)cc4)ccc3n2C)c(Cl)c1` [Example 562, N-(4-Bromophenyl)-2-(2-chloro-4-(dimethylcarbamoyl)-phenylamino)-1-methyl-1H-benzimidazole-5-carboxamide] stands 97%; under `CO[C@H]1CC[C@H](NC(=O)c2ccc3[nH]c(Nc4c(Cl)cccc4Cl)nc3c2)CC1` [Example 216, 2-(2,6-Dichloro-phenylamino)-1H-benzimidazole-5-carboxylic acid ((1R,4R)-4-methoxy-cyclohexyl)-amide], 64%.
In the case of `Cn1c(Nc2c(Cl)cccc2Cl)nc2cc(C(=O)Nc3ccc(Br)cc3)c(F)cc21` [Example 167, 2-(2,6-Dichloro-phenylamino)-6-fluoro-1-methyl-1H-benzimidazole-5-carboxylic acid (4-bromo-phenyl)-amide], the inhibition at 10 µM amounted to 93%.
`CC(C)Oc1cc2[nH]c(Nc3c(Cl)ccc(Cl)c3F)nc2cc1C(=O)NC1CCC(C(F)(F)F)CC1` (stereo not drawn) [Example 620, 2-(3,6-Dichloro-2-fluoro-phenylamino)-6-isopropoxy-N-(4-trans-trifluoromethyl-cyclohex-1-yl)-1H-benzimidazole-5-carboxamide]: the inhibition at 10 µM is 100%.
With `Cn1c(Nc2c(F)cccc2F)nc2cc(C(=O)N[C@H]3CC[C@H](C(F)(F)F)CC3)ccc21` [Example 171, 2-(2,6-Difluoro-phenylamino)-1-methyl-1H-benzimidazole-5-carboxylic acid (trans-4-trifluoromethyl-cyclohexyl)-amide], the inhibition at 10 µM worked out at 94%.
For `COc1cc2c(cc1C(=O)NC1CCCCC1)nc(Nc1c(Cl)ccc(Cl)c1F)n2C` [Example 619, 2-(3,6-Dichloro-2-fluoro-phenylamino)-6-methoxy-N-cyclohexyl-1-methyl-1H-benzimidazole-5-carboxamide], the inhibition at 10 µM worked out at 94%.
Regarding `Cc1ccc(NC(=O)c2ccc3[nH]c(Nc4c(Cl)cccc4Cl)nc3c2)nc1C` [Example 498, 2-(2,6-Dichlorophenylamino)-N-(5,6-dimethylpyridin-2-yl)-1H-benzimidazole-5-carboxamide], the inhibition at 10 µM amounted to 100%.
With `O=C(NCc1cccc(C(F)(F)F)n1)c1ccc2[nH]c(Nc3c(Cl)cccc3Cl)nc2c1` [Example 223, 2-(2,6-Dichloro-phenylamino)-1H-benzimidazole-5-carboxylic acid (6-trifluoromethyl-pyridin-2-ylmethyl)-amide], the inhibition at 10 µM worked out at 87%.
Turning to `N#Cc1ccnc(NC(=O)c2ccc3[nH]c(Nc4c(Cl)cccc4Cl)nc3c2)c1` [Example 539, N-(4-Cyanopyridin-2-yl)-2-(2,6-dichlorophenylamino)-1H-benzimidazole-5-carboxamide], the inhibition at 10 µM was found to be 94%.
With `Cn1c(Nc2c(Cl)cc(F)cc2Cl)nc2cc(C(=O)N[C@H]3CC[C@H](C(F)(F)F)CC3)ccc21` [Example 432, 2-(2,6-Dichloro-4-fluorophenylamino)-1-methyl-N-((1R,4R)-4-trifluoromethyl-cyclohexyl)-1H-benzimidazole-5-carboxamide], the inhibition at 10 µM is 100%.
On the same count and under the same terms, under `O=C(Nc1cccc(F)c1)c1ccc2[nH]c(Nc3c(Cl)cccc3Cl)nc2c1` [Example 285, 2-(2,6-Dichloro-phenylamino)-1H-benzimidazole-5-carboxylic acid (3-fluoro-phenyl)-amide] stands 100%; under `Cc1cc(C)nc(NC(=O)c2ccc3[nH]c(Nc4c(Cl)cccc4Cl)nc3c2)c1` [Example 117, 2-(2,6-Dichloro-phenylamino)-1H-benzimidazole-5-carboxylic acid (4,6-dimethyl-pyridin-2-yl)-amide], 100%; under `O=C(NCC1CCCCC1)c1ccc2[nH]c(Nc3c(Cl)cccc3Cl)nc2c1` [Example 288, 2-(2,6-Dichloro-phenylamino)-1H-benzimidazole-5-carboxylic acid cyclohexylmethyl-amide], 100%.

Tested on in the next data set: not given
Assay: not given
Details: not given
Take `O=C(Nc1ccc(Br)cn1)c1ccc2[nH]c(Nc3c(Cl)cccc3Cl)nc2c1` [Example 303, 2-(2,6-Dichloro-phenylamino)-1H-benzimidazole-5-carboxylic acid (5-bromo-pyridin-2-yl)-amide]: the melting point (commonly the temperature of the solid-liquid transition) fell in the range of 183 to 185 °C.
Turning to `Cn1c(Nc2c(Cl)cccc2Cl)nc2cc(C(=O)Nc3cccc(Cl)c3)ccc21` [Example 297, 2-(2,6-Dichloro-phenylamino)-1-methyl-1H-benzimidazole-5-carboxylic acid (3-chloro-phenyl)-amide], the melting point was 175 to 176 °C.

For the origin of these results see patent US8916599B2, “1H-benz imidazole-5-carboxamides as anti-inflammatory agents” (Orexo AB, priority 2008, dated 2014).
